In experiment [1] the test system is infected GS3 embryos with the GAT construct. The experiment can be described thus: Glyphosate response of embryos infected with the GAT construct. The format is cell-based, maize. The following applies: about 40 days culture. As to the method: (§1) A glyphosate kill curve was established by testing non-transformed embryos response on media with different levels of glyphosate. GS3 embryos were isolated from an immature ear and placed onto media containing glyphosate at 0.0, 0.5, 1.0, and 2.0 mM. After about 40 days culture, the response of the embryos were observed and recorded. Similarly, infected GS3 embryos with the GAT construct were placed onto media containing glyphosate at 0.0, 0.5, 1.0, and 2.0 mM. After about 40 days culture, the response of the infected embryos were observed and recorded (FIG. 7).
(§2) Western or PCR analysis has confirmed that these resistant calli were transformed. Currently, GAT has performed consistently as an effective selectable marker with excellent transformation efficiency in both GS3 and introEF09B genotypes (FIG. 9 and Table 1).

Experiment [2] has as its system non-transformed GS3 embryos. The experiment can be described thus: Glyphosate kill curve on non-transformed embryos. The following applies: about 40 days culture. Format: cell-based, maize. As to the method:
as §1, §2

Each structure is given as a SMILES string.

Regarding `O=C(O)CNCP(=O)(O)O` [glyphosate], the embryo callus response is reported as “more callus was grown” in experiment [1] (0.5 mM glyphosate in medium); “some embryos initiated resistant callus” in experiment [1] (1.0 mM glyphosate in medium); “some embryos initiated resistant callus” in experiment [1] (2.0 mM glyphosate in medium); “about half of the embryos” in experiment [2] (0.5 mM glyphosate in medium); “very little callus growth” in experiment [2] (1.0 mM glyphosate in medium); “very little callus growth” in experiment [2] (2.0 mM glyphosate in medium).

For the origin of these results see patent US20070061917A1, “Methods and compositions for the expression of a polynucleotide of interest” (Pioneer Hi-Bred International, Inc., priority 2005, published 2007).
